Laboratory results from US20190038756A1, “COMPOSITIONS INCLUDING BENZENESULFONAMIDE-CONTAINING NON-STEROIDAL ANTI-INFLAMMATORY DRUGS, SILK FIBROIN, AND A GELLING AGENT AND USES THEREOF” (Cocoon Biotech Inc., priority 2016, published 2019).
≈ marks a conversion by molar mass, not a printed value. Where a name gives a salt, the structure may show the parent alone. Read-outs that look alike come from different tables or passages of the source.

Key:
[1] = system: TNF-α in human whole blood; assay: Human whole blood activation: TNF-α by ELISA after 24 hours at 37° C., with or without LPS; format: cell-based
Text: Acute inflammatory responses are initiated via activation of a mammal's innate immune system. Human whole blood contains the principle repertoire of immune cells responsible for initiating an innate driven inflammatory response. Activation of inflammation in human whole blood is a useful in vitro assay for assessing the inflammatory potential of silk-fibroin hydrogel constituents. For this reason, whole human blood was exposed to silk fibroin solutions, three dimensional silk fibroin hydrogels, and a variety of different gelling agents for 24 hours at 37° C. and assessed for activation of inflammation.
Lipopolysaccharide (LPS) was used as a positive stimulator of the inflammatory marker TNF-α, in whole blood. Experiments to assess the inflammatory potential of formulation constituents were conducted both in the absence and the presence of lipopolysaccharide (LPS). The later condition to assess whether any formulation constituent had the activity of potentiating a known inflammatory signal. In each experiment, plasma was collected at the end of the incubation period and analyzed for TNF-α via enzyme-linked immunosorbent assay (ELISA).

[2] = In vitro release study of NSAIDs from silk-PEG hydrogels (UV detection); format: physicochemical; conditions: for release of free drug without encapsulation in silk-fibroin hydrogels: no hydrogel; for sustained release (e.g., greater than one week) using a silk-fibroin hydrogel delivery platform / time within which celecoxib was released: silk-fibroin hydrogel; for time within which celecoxib was released: 6.5% (w/v) fibroin (FIG. 5)
Protocol: Lyophilized silk was dissolved with ultrapure water to obtain concentrations of 1.3, 3.6, 7.0, 13.0, and 23.0% (w/v). Polyethylene glycol (PEG) with molecular weights of 300 and 400 Da (PEG300 and PEG400) was diluted with ultrapure water when necessary. Celecoxib (a benzenesulfonamide-containing NSAID) and other NSAIDs which are not benzenesulfonamide-containing NSAIDs (tenoxicam, meloxicam, and lomoxicam) were dissolved with 80% (v/v) PEG400 solution to obtain low concentration solutions (<40 mg/mL) or with 100% (v/v) PEG300 to obtain high concentration solutions (>100 mg/mL). Diclofenac sodium salt (another NSAID that is not a benzenesulfonamide-containing NSAID) was dissolved in the aqueous silk solution.
The PEG or PEG/drug solution was mixed with silk solution by pipetting up and down gently and aliquoted into a 2-mL Eppendorf tube. Each tube was left at 37° C. to gel overnight (Wang et al., Acta Biomater. 12:51-61, 2015).
To the 2-mL Eppendorf tube containing fibroin-drug hydrogel, 1.95 mL of release medium was added. The release medium contained 1× phosphate buffer, pH 7.4, 0.1% (v/v) Tween-80, and 0.02% (w/v) sodium azide. The samples were incubated at 37° C. with gentle shaking. The release medium was changed after 24 hours and then approximately once every 3 days. The release medium was subjected to UV detection using a UV transparent bottom plate (Corning) at the respective wavelengths listed in Table 8. Control release medium was measured under the same condition for background subtraction. A calibration curve was generated for each drug by dissolving a known amount of each drug in the release medium, and making dilutions with the release medium.

[3] = Gelation of silk fibroin hydrogels with varying gelling agents (25° C., 37° C., autoclave); format: physicochemical
[4] = Solubility of celecoxib in release media; format: physicochemical; conditions: release medium (phosphate buffered saline with Tween-80), aqueous with cosolvent or surfactant or cyclodextrin; 1× phosphate buffered saline, 2% (v/v) Tween-80, 0.05% sodium azide
[5] = AUC at NOAEL oral dose from oral Celecoxib NDA package; conditions: in vivo, oral NOAEL dose 20 mg/kg, read-out: Extrapolated AUC for 25 days
[6] = oral NOAEL dose 20 mg/kg, cited from earlier work
[7] = absence of celecoxib, RT curing
[8] = absence of celecoxib, autoclaving

silk fibroin: soluble silk fibroin samples isolated using several different degumming techniques
Inflammatory signal (TNF-α) in human whole blood ([1]; absence of co-added LPS, 24 hours at 37° C.): did not exhibit inflammatory signals beyond low baseline responses | TNF-α response in human whole blood ([1]; presence of LPS, 24 hours at 37° C.): generally reduced compared to the response to LPS alone

O=C(O)Cc1ccccc1Nc1c(Cl)cccc1Cl [Diclofenac sodium salt]
time within which drug was completely released ([2]; from all the tested silk-fibroin hydrogels (FIGS. 2-4), 37° C., phosphate buffer pH 7.4, 0.1% Tween-80): ≤ 4 days | release of free drug without encapsulation in silk-fibroin hydrogels [2]: released within one day | sustained release (e.g., greater than one week) using a silk-fibroin hydrogel delivery platform [2]: could not be achieved

CN1C(C(=O)Nc2ccccn2)=C(O)c2sc(Cl)cc2S1(=O)=O [Lomoxicam, lomoxicam]
day at which cumulative release plateaued ([2]; drug with no fibroin (FIG. 1)): 2 days | day at which cumulative release plateaued ([2]; from silk-fibroin hydrogels, all tested formulations (FIG. 1), 37° C., phosphate buffer pH 7.4, 0.1% Tween-80): 6 days | release of free drug without encapsulation in silk-fibroin hydrogels [2]: released within one day | sustained release (e.g., greater than one week) using a silk-fibroin hydrogel delivery platform [2]: could not be achieved

Glycerol formal
Minimum gelling agent concentration eliciting gelation [3, 7]: 40 % (v/v) | Minimum gelling agent concentration eliciting gelation [3, 8]: 20 % (v/v)

CC(O)CO (stereo not drawn) [Propylene glycol]
Minimum gelling agent concentration eliciting gelation ([3]; 87 mg/mL celecoxib, RT): 30 % (v/v) | Minimum gelling agent concentration eliciting gelation ([3]; 87 mg/mL celecoxib, autoclave): 10 % (v/v) | Minimum gelling agent concentration eliciting gelation [3, 7]: 40 % (v/v) | Minimum gelling agent concentration eliciting gelation [3, 8]: 20 % (v/v)

OCC(O)CO [glycerol]
Minimum gelling agent concentration eliciting gelation ([3]; 87 mg/mL celecoxib, curing temperature 37° C.): 40 % (v/v) | Minimum gelling agent concentration eliciting gelation ([3]; absence of celecoxib, 37° C.): 40 % (v/v) | Minimum gelling agent concentration eliciting gelation [3, 7]: 50 % (v/v) | Minimum gelling agent concentration eliciting gelation [3, 8]: 30 % (v/v)

Cc1ccc(-c2cc(C(F)(F)F)nn2-c2ccc(S(N)(=O)=O)cc2)cc1 [Celecoxib, 4-[5-(4-methylphenyl)-3-(trifluoromethyl)pyrazol-1-yl]benzenesulfonamide]
extended time period of celecoxib release ([2]; all hydrogels of FIG. 7): ≤ 56 days | duration of sustained celecoxib release ([2]; fibroin concentrations in the hydrogel […] (w/v) to 6.5% (w/v)): sustained over two months | period over which celecoxib release occurs ([2]; hydrogel fibroin concentration 0.65% (w/v) (FIG. 6)): 15 days | period over which celecoxib release occurs ([2]; hydrogel fibroin concentration 1.3% (w/v) (FIG. 6)): 30 days | period over which celecoxib release occurs ([2]; hydrogel fibroin concentration 12.5% (w/v) (FIG. 6)): 41 days | period over which celecoxib release occurs ([2]; hydrogel fibroin concentration […] (w/v) (FIG. 6)): 41 days | period over which celecoxib release occurs ([2]; no fibroin/“free” celecoxib sample (0% silk-fibroin) (FIG. 6)): 6 days | time within which celecoxib was released ([2]; celecoxib 0.09375% (w/v)): ≤ 30 days | time within which celecoxib was released ([2]; celecoxib 0.1875% (w/v)): ≤ 30 days | time within which celecoxib was released ([2]; celecoxib 0.375% (w/v)): ≤ 75 days | duration of slow release of celecoxib at ˜40 μg a day ([2]; silk-fibroin hydrogels): more than 75 days | slow release rate of celecoxib from silk-fibroin hydrogels ([2]; silk-fibroin hydrogels): ~40 μg a day | solubility [4]: 850 µg/mL (≈ 2230 µM) | AUC ([5]; Female (F)): 978 µg·h/mL | AUC ([5]; Male (M)): 468 µg·h/mL | AUC at Day 1 ([6]; Female (F)): 39.1 µg·h/mL | AUC at Day 1 ([6]; Male (M)): 18.7 µg·h/mL

OC[C@@H](O)[C@@H](O)[C@H](O)[C@@H](O)CO [sorbitol]
Gelling agent concentration at which a hydrogel formed ([3]; absence of celecoxib, 37° C.): 30 % (w/v) | Gelling agent concentration at which a hydrogel formed ([3]; absence of celecoxib, RT): 30 % (w/v) | Inflammatory potential (TNF-α) in human whole blood ([1]; +/−LPS, relevant concentrations): non-inflammatory
